Reference: publication PMC11270681, “Synthesis and Systematic Investigation of Lepidiline A and Its Gold(I), Silver(I), and Copper(I) Complexes Using In Vitro Cancer Models and Multipotent Stem Cells” (ACS Omega, 2024)
Several values for one entry are separate records, joined by “and”; a condition that tells them apart may be missing. Equal values may be shown once. Values belong to the compound of their own block, whether it stands above or below them.

Tests used:
[1] = test system: Mes-Sa B1; assay: Cytotoxicity, MDR1-transfected uterine sarcoma line; type: cell-based; settings: Mes-Sa B1 (MDR1 transfected, ABCB1 expressing), fluorescent protein intensity after 144 h
Description: (§1) OVCAR-3 (OVC-3) and OVCAR-8 (OVC-8) ovarian serous adenocarcinomas, IGROV-1 ovarian endometrioid adenocarcinoma, OVCAR-5 (OVC-5) upper gastrointestinal carcinoma, MDA-MB-231 breast adenocarcinoma, and MCF-7 and T-47D invasive breast carcinomas were purchased from the Developmental Therapeutic Program of the National Cancer Institute (NIH, USA) and were cultured in an RPMI medium (Thermo Fisher). Mes-Sa and Mes-Sa/Dx5 uterine sarcoma cell lines were purchased from American Type Culture Collection (ATCC) and were kept in DMEM (Thermo Fisher). Mes-Sa B1 was transfected with the human MDR1 gene, and Mes-Sa mCherry, Mes-Sa B1 mOrange, and Mes-Sa/Dx5 eGFP were engineered to stably express the respective fluorescent proteins previously.[51] Culture media for cancer cells were supplemented with 10% fetal bovine serum, 2 mM L-glutamine, and 100 units/mL penicillin and 100 μg/mL streptomycin (Thermo Fisher). The adipose tissue and bone marrow-derived mesenchymal stem cells (AD-MSC and BM-MSC) were described previously[37] and were kept in DMEM-F12 (Gibco) supplemented with 10% fetal bovine serum, L-glutamine (Thermo Fisher), 0.1% gentamicin (Gibco, 50 mg/mL), and 16 ng/mL fibroblast growth factor 2 (Peprotech). Cells were kept at 37 °C under 5% CO2 and were negative for mycoplasma infection.
(§2) Cytotoxicities of the nonfluorescent cancer cells were assessed with a PrestoBlue cell viability reagent (Thermo Fisher). Briefly, 2500 cells/well were seeded on 384-well plates; then, the next-day drugs were added. After 72 h of incubation, PrestoBlue was added in a 10% final concentration, and after an hour of additional incubation, plates were measured with a PerkinElmer EnSpire plate reader at 555 nm/585 nm excitation/emission wavelengths. Stem cells were seeded on 96-well plates at a density of 5000 cells/well, and the following day, drugs were added for 96 h of incubation; then, viability was assessed with 10% PrestoBlue diluted in PBS. Fluorescent cancer cells were admixed before seeding on 384-well plates at an 800 cells/well density each, thus altogether 2400 cells/well. Drugs were added the following day, and the intensity of the fluorescent proteins was measured after 144 h of incubation at the respective fluorescent channels (excitation/emission, eGFP: 485 nm/510 nm; mCherry: 585 nm/610 nm; mOrange: 545 nm/567 nm). pIC50 values were calculated by a custom program written by Judit Sessler in C#. IC50 values and standard deviation were calculated from average pIC50 values from at least 3 independent measurements.

[2] = test system: OVC-3; assay: Cytotoxicity (PrestoBlue), ovarian cancer line; type: cell-based; settings: OVC-3, 72 h incubation
Description: as §1, §2

[3] = test system: OVC-8; assay: Cytotoxicity (PrestoBlue), ovarian cancer line; type: cell-based; settings: OVC-8, 72 h incubation
Description: as §1, §2

[4] = test system: IGROV-1; assay: Cytotoxicity (PrestoBlue), ovarian cancer line; type: cell-based; settings: IGROV-1, 72 h incubation
Description: as §1, §2

[5] = test system: BM-MSC; assay: Cytotoxicity (PrestoBlue), bone marrow-derived mesenchymal stem cells; type: cell-based; settings: 96 h incubation
Description: as §1, §2

[6] = Stability in serum-free culture medium by HPLC-UV; type: physicochemical; settings: for AUC (HPLC-UV), single measurements 1-5 / AUC (HPLC-UV), average: serum-free culture medium
Description: Stability of the metal complexes in solution was measured in serum-free culture medium. The compounds were dissolved in DMSO right before the experiment. Solutions of Cu-LA and Ag-LA contained 1% final volume of DMSO, while Au-LA contained 30% DMSO. Samples were taken right after dilution, and after 1 h, 2 h, 4 h, 8 h, 16 h, 32 and 48 h, and measured by HPLC-UV.

[7] = test system: Mes-Sa/Dx5; assay: Cytotoxicity, doxorubicin-selected MDR uterine sarcoma line; type: cell-based; settings: Mes-Sa/Dx5 (doxorubicin selected, ABCB1 expressing), fluorescent protein intensity after 144 h
Description: as §1, §2

[8] = test system: MSCs; assay: Cytotoxicity, range over MSCs; type: cell-based; settings: AD-MSC, BM-MSC, immortalized BM-MSC
Description: as §1
(§3) Cytotoxicities of the nonfluorescent cancer cells were assessed with a PrestoBlue cell viability reagent (Thermo Fisher). Briefly, 2500 cells/well were seeded on 384-well plates; then, the next-day drugs were added. After 72 h of incubation, PrestoBlue was added in a 10% final concentration, and after an hour of additional incubation, plates were measured with a PerkinElmer EnSpire plate reader at 555 nm/585 nm excitation/emission wavelengths. Stem cells were seeded on 96-well plates at a density of 5000 cells/well, and the following day, drugs were added for 96 h of incubation; then, viability was assessed with 10% PrestoBlue diluted in PBS. […] IC50 values and standard deviation were calculated from average pIC50 values from at least 3 independent measurements.

[9] = test system: Mes-Sa; assay: Cytotoxicity, uterine sarcoma parental line; type: cell-based; settings: fluorescent protein intensity after 144 h
Description: as §1, §2

[10] = test system: im. BM-MSC; assay: Cytotoxicity (PrestoBlue), immortalized bone marrow MSC; type: cell-based; settings: 96 h incubation
Description: as §1, §2

[11] = test system: 3 ovarium cancer lines (IGROV-1, OVC-3, and OVC-8); assay: Cytotoxicity, range over 3 ovarium cancer lines; type: cell-based; settings: IGROV-1, OVC-3, OVC-8
Description: as §1, §2

[12] = test system: cancer lines; assay: Cytotoxicity, range over cancer lines; type: cell-based; settings: all cancer lines tested; read-out: IC50 range over cancer lines
Description: as §1, §3

[13] = test system: 3 breast cancer cell lines (MDA-MB-231, MCF-7 and T-47D); assay: Cytotoxicity, range over 3 breast cancer cell lines; type: cell-based; settings: MDA-MB-231, MCF-7, T-47D
Description: as §1, §2

[14] = test system: MDA-MB-231; assay: Cytotoxicity (PrestoBlue), breast cancer line; type: cell-based; settings: MDA-MB-231, 72 h incubation
Description: as §1, §2

[15] = test system: T-47D; assay: Cytotoxicity (PrestoBlue), breast cancer line; type: cell-based; settings: 72 h incubation
Description: as §1, §2

[16] = test system: MCF-7; assay: Cytotoxicity (PrestoBlue), breast cancer line; type: cell-based
Description: as §1, §2

[17] = test system: AD-MSC; assay: Cytotoxicity (PrestoBlue), adipose-derived mesenchymal stem cells; type: cell-based; settings: 96 h incubation
Description: as §1, §2

[18] = test system: Mes-Sa; assay: H2DCFDA intracellular ROS production assay; type: cell-based; settings: 50 μM, 4 h incubation
Description: (§4) To assess intracellular ROS production, we used a H2DCFDA cellular ROS assay kit (ab113851, Abcam) according to the manufacturer’s instructions. Briefly, 20,000 cells were seeded on 96-well plates. On the following day, cells were washed, and H2DCFDA solution, prepared by avoiding direct light, was added for 45 min. Next, cells were washed, and 50 μM samples of test compounds were aspirated on the cells in a complete and phenol red-free medium (FluoroBrite, Thermo Fisher). At each hour, fluorescence of 2′,7′-dichlorofluorescein (DCF) was measured at 484 nm/535 nm excitation/emission wavelengths. Values were normalized to 0 h measurements. Values indicate at least 3 independent measurements.

[19] = test system: Bone marrow MSCs (BM-MSC); assay: Cytotoxicity, range over bone marrow MSCs; type: cell-based; settings: BM-MSC and immortalized BM-MSC
Description: as §1, §2

[20] = test system: OVC-5; assay: Cytotoxicity (PrestoBlue), upper gastrointestinal cancer line; type: cell-based; settings: for IC50: OVC-5, 72 h incubation, PrestoBlue
Description: as §1, §2

[21] = test system: panel of cancer cell lines of various origins; parameters: method as in PMID 12932133; settings: up to 10 μg/mL (approximately 60 μM for lepidiline A); cited from earlier work
[22] = test system: HL-60 leukemia line; parameters: method as in PMID 34808062; settings: cited from earlier work
[23] = test system: T-47D; assay: H2DCFDA intracellular ROS production assay; type: cell-based; settings: 50 μM, 4 h incubation
Description: as §4

[24] = test system: MCF-7; assay: H2DCFDA intracellular ROS production assay; type: cell-based; settings: MCF-7, 50 μM, 4 h incubation
Description: as §4

[25] = test system: MCF-7 breast cancer line; parameters: method as in PMID 34808062; settings: cited from earlier work

AUC (HPLC-UV), single measurements 1-5 ([6]; 0 h): 700 and 697 and 698
AUC (HPLC-UV), average ([6]; 0 h, Cu-LA, Ag-LA 1% DMSO, Au-LA 30% DMSO): 698
AUC (HPLC-UV), average ([6]; 1 h): 677
AUC (HPLC-UV), single measurements 1-5 ([6]; 1 h): 690 and 685 and 674 and 672 and 665
AUC (HPLC-UV), average ([6]; 2 h): 643
AUC (HPLC-UV), single measurements 1-5 ([6]; 2 h): 645 and 644 and 640 and 643
AUC (HPLC-UV), average ([6]; 4 h): 606
AUC (HPLC-UV), single measurements 1-5 ([6]; 4 h): 614 and 605 and 604 and 603
AUC (HPLC-UV), average ([6]; 8 h): 456
AUC (HPLC-UV), single measurements 1-5 ([6]; 8 h): 463 and 457 and 456 and 454 and 451
AUC (HPLC-UV), average ([6]; 16 h): 351
AUC (HPLC-UV), single measurements 1-5 ([6]; 16 h): 354 and 351 and 353 and 350 and 345
AUC (HPLC-UV), average ([6]; 32 h): 177
AUC (HPLC-UV), single measurements 1-5 ([6]; 32 h): 180 and 173 and 174 and 172 and 187
AUC (HPLC-UV), average ([6]; 48 h): 141
AUC (HPLC-UV), single measurements 1-5 ([6]; 48 h): 142 and 143 and 140 and 135
Stability in serum-free culture medium ([6]; HPLC-UV, observed 48 h): decreased after 4 h
Compound: Cc1c(C)n(Cc2ccccc2)[c](=[Au][Cl])n1Cc1ccccc1 [Au-LA, Chloro-(1,3-dibenzyl-4,5-dimethyl-imidazol-2-ylidene)gold]
IC50 [1]: 12.8 µM
IC50 [2]: 16.6 µM
IC50 [3]: 12.7 µM
IC50 [4]: 10.5 µM
IC50 [5]: 7.54 µM
IC50 [7]: 13.4 µM
IC50 [8]: 5.7 to 7.5 µM
IC50 [9]: 9.09 µM
IC50 [10]: 5.7 µM
IC50 [11]: 10.5 to 17.4 µM
IC50 [12]: 7.7 to 24.8 µM
IC50 [13]: 5.8 to 12 µM
IC50 [14]: 9.58 µM
IC50 [15]: 7.71 µM
IC50 ([16]; MCF-7, 72 h incubation): 9.49 µM
IC50 [17]: 5.69 µM
More ROS compared to the medium [18]: ~50%
IC50 [19]: 5.7 to 15.7 µM
IC50 [20]: 24.8 µM

Compound: Cc1c(C)[n+](Cc2ccccc2)cn1Cc1ccccc1.[Cl-] [LA, 1,3-Dibenzyl-4,5-dimethyl-imidazol-1-ium-chloride]
IC50 ([1]; Homo sapiens): > 200 µM
IC50 [2]: 48.1 µM
IC50 [3]: 57.2 µM
IC50 ([4]; Homo sapiens): 59.9 µM
Toxicity against a panel of cancer cell lines [21]: low or no toxicity
IC50 ([5]; BMMSC): 69.1 µM
IC50 ([7]; Homo sapiens, MES-SA/Dx5, 144 h): > 200 µM
IC50 ([9]; Homo sapiens): 27.8 µM
IC50 ([10]; BMMSC): 47.6 µM
IC50 ([11]; Homo sapiens): 48.1 to 72.9 µM
IC50 [22]: ~30 µM
IC50 ([14]; Homo sapiens): 91.8 µM
IC50 ([15]; Homo sapiens, T47D): 16.1 µM
IC50 ([16]; Homo sapiens, MCF7, MCF-7, 72 h incubation): 71.7 µM
IC50 ([17]; listed as Lepidiline A): 184 µM
IC50 ([17]; Mesenchymal stem cells, 96 h): 184 µM
Intracellular ROS production compared to the medium [18]: did not provoke extra ROS production
Intracellular ROS production compared to the medium [23]: did not provoke extra ROS production
Intracellular ROS production compared to the medium [24]: did not provoke extra ROS production
IC50 ([19]; BMMSC): 48 to 98 µM
IC50 [20]: > 200 µM
Lower susceptibility of OVC-5 compared to the ovarian cancer lines ([20]; OVC-5 vs ovarian cancer lines): 4 fold

Compound: Cc1c(C)[n+](Cc2ccccc2)c(C)n1Cc1ccccc1 [lepidiline B, reference compound]
Toxicity against a panel of cancer cell lines [21]: low or no toxicity
IC50 [22]: 3.8 µM

Compound: COc1cccc(C[n+]2cn(Cc3ccccc3)c(C)c2C)c1 [lepidiline C]
IC50 [22]: ~30 µM
IC50 [25]: 75 µM
